We go through one compound from paper PMC2442655, “Structure-Activity Relationship and Substrate-Dependent Phenomena in Effects of Ginsenosides on Activities of Drug-Metabolizing P450 Enzymes” (PLoS ONE, 2008).

For data set [1], the target named is T1, CYP3A4 (Homo sapiens, UniProt P08684). Nature of the data set: Vivid CYP3A4 red fluorescent assay. As to the method: (§1) The inhibition of the catalytic activities of cDNA-expressed human P450 enzymes by ginsenosides was determined using Vivid® P450 screening kits (CYP1A2 blue, CYP2C9 red, CYP2C19 blue, CYP2D6 blue, CYP3A4 green and red) according to the manufacturer's instructions (Invitrogen Corporation; Carlsbad, CA, USA).
(§2) In brief, the assays were carried out in Costar® black-wall 96-well plates with ultra thin clear bottoms (Corning Inc, Corning, NY, USA) in a kinetic assay mode. Stock solutions (10 mM) of ginsenosides in methanol were prepared and diluted to various concentrations (2.5× 100, 50, 10, 5, 1 µM). For each well, 40 µL of solution of test compounds or vehicle was incubated with 50 µL pre-mixture (mixture of BACULOSOMES® reagent, regeneration system and reaction buffer) at 37°C for 20 min. The reaction was initiated by adding 10 µL of a mixture of substrate and NADP^+ per well with a respective concentration of Vivid® substrate (Table 1). The plate was read immediately for fluorescence changes every 0.5 min at 37°C for 30 min using a FlexStation II384 fluorometric plate reader (Molecular Devices, Sunnyvale, CA, USA) with respective excitation and emission wavelengths for each P450 enzyme (Table 1). The final methanol volume in the reaction was less than or equal to 1%.

Data set [2] concerns the target T1, CYP3A4. Briefly: Vivid CYP3A4 green fluorescent assay. As to the method: as §1, §2
The target of a further data set is CYP2C19 (Homo sapiens, UniProt P33261). Nature of the data set: Vivid CYP2C19 blue fluorescent assay. As to the method: as §1, §2
Another data set concerns the target CYP2D6 (Homo sapiens, UniProt P10635). Briefly: Vivid CYP2D6 blue fluorescent assay. As to the method: as §1, §2
A further data set concerns the target T2, CYP2C9 (Homo sapiens, UniProt P11712).
T2 construct: purchased Invitrogen Corporation
Briefly: Vivid CYP2C9 red fluorescent assay. Type of data set: in vitro ADME.

The target of another data set is T3, CYP1A2 (Homo sapiens, UniProt P05177).
T3 sequence (P05177 1-516): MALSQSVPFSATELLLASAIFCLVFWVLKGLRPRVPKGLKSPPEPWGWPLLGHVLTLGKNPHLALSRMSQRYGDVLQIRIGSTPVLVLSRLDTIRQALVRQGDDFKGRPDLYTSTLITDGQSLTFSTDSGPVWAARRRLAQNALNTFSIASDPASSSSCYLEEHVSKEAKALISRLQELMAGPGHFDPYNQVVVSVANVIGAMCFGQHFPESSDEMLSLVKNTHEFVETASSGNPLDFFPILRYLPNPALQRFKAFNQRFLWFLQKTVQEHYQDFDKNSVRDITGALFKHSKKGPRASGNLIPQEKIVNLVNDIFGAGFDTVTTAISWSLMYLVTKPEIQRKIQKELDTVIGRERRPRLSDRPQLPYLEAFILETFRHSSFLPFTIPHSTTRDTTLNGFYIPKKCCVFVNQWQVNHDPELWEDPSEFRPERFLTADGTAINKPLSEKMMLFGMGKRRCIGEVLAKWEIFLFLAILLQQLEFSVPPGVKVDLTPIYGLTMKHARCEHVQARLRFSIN
Briefly: Vivid CYP1A2 blue fluorescent assay. On the procedure: as §1, §2

Data set [3] deals with CYP3A4. The arrangement: method as in PMID 15133536. To be noted: read-out: IC50 CYP3A4-mediated testosterone 6β-hydroxylation; cited from earlier work.

pIC50: −log10 of the molar value.

T1 sequence (P08684 whole entry): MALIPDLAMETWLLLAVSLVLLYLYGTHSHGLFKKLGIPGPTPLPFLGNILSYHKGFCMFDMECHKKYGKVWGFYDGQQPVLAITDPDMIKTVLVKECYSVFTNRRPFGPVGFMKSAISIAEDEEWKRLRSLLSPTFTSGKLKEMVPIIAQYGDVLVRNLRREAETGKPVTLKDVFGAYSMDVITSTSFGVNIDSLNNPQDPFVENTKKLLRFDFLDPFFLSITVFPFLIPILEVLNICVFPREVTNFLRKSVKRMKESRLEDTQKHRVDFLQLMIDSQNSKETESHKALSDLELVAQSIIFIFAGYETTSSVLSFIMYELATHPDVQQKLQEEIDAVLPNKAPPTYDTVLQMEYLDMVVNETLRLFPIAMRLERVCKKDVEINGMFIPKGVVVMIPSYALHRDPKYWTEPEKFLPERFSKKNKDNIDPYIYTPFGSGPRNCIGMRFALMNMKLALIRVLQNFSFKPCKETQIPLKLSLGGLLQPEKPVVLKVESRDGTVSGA
T2 sequence (P11712 whole entry): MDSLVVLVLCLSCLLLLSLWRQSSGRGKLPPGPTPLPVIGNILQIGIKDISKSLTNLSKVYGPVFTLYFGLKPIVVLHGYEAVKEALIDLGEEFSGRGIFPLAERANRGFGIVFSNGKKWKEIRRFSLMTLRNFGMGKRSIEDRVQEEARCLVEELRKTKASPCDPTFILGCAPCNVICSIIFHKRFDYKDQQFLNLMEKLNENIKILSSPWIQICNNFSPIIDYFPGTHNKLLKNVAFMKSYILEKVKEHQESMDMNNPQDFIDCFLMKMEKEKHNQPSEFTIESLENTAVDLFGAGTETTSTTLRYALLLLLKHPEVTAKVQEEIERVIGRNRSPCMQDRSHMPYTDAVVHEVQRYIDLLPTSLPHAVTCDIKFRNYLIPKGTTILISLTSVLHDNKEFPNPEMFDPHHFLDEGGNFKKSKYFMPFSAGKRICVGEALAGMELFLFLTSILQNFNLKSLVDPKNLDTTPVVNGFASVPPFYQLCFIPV
Sequence of CYP2D6 (P10635 whole entry): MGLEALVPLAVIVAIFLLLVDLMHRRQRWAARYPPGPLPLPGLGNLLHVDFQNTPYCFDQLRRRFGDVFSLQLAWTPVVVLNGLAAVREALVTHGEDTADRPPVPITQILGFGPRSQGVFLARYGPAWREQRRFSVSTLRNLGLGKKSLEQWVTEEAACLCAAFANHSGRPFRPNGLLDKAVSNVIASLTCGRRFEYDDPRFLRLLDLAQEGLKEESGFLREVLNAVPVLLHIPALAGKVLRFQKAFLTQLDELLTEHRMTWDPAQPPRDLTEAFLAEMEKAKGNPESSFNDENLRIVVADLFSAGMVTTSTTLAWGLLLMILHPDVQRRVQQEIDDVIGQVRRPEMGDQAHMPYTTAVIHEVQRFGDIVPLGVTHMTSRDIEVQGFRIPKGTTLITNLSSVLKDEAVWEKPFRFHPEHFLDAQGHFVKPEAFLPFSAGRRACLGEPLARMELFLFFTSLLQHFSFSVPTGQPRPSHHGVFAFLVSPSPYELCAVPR
Sequence of CYP2C19 (P33261 whole entry): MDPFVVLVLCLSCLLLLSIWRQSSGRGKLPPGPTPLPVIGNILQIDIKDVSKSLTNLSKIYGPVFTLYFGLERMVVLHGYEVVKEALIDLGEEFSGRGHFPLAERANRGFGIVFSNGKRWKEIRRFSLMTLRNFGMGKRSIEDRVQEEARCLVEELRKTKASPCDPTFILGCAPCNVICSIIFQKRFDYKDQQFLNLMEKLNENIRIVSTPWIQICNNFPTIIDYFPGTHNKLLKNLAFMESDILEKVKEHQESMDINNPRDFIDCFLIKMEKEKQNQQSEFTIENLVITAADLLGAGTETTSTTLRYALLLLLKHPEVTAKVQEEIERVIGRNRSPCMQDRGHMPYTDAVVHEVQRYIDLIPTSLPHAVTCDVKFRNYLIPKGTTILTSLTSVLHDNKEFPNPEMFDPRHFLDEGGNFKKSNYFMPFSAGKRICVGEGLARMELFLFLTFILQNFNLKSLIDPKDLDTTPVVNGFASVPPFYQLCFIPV
Protocol for CYP2C9: In brief, the assays were carried out in Costar® black-wall 96-well plates with ultra thin clear bottoms (Corning Inc, Corning, NY, USA) in a kinetic assay mode. […] For each well, 40 µL of solution of test compounds or vehicle was incubated with 50 µL pre-mixture (mixture of BACULOSOMES® reagent, regeneration system and reaction buffer) at 37°C for 20 min. […] The final methanol volume in the reaction was less than or equal to 1%.

For the compound `CC(C)=CCC[C@](C)(O[C@@H]1O[C@H](CO)[C@@H](O)[C@H](O)[C@H]1O)[C@H]1CC[C@]2(C)[C@@H]1[C@H](O)C[C@@H]1[C@@]3(C)CC[C@H](O[C@@H]4O[C@H](CO)[C@@H](O)[C@H](O)[C@H]4O[C@@H]4O[C@H](CO)[C@@H](O)[C@H](O)[C@H]4O)C(C)(C)[C@@H]3CC[C@]12C` [Rd], the pIC50 against CYP3A4 [1] is 4.14; against CYP3A4 [2], less than 4.00; against CYP2C19, less than 4.00; at CYP2D6, less than 4.30; on CYP2C9 (cDNA-expressed enzyme, Vivid red substrate 2 µM, maximum concentration 50 µM, read-out: IC50 CYP2C9 red) it was less than 4.30; at CYP1A2 (IC50 CYP1A2 blue, cDNA-expressed enzyme, Vivid blue substrate 3 µM) it was less than 4.00. The pIC50 in the data set on CYP3A4 [3] was 4.21. Further, the inhibition at 30 min, 50 µM on CYP3A4 [2] (human, recombinant (cDNA-expressed) CYP3A4 BACULOSOMES, probe Vivid green substrate 2 µM) came to 12.6%; at CYP2C19 (human, recombinant (cDNA-expressed) CYP2C19 BACULOSOMES, probe Vivid blue substrate 10 µM), 27.7%; at CYP2D6 (human, recombinant (cDNA-expressed) CYP2D6 BACULOSOMES, probe Vivid blue substrate 10 µM), 18.1%; on CYP2C9 (human, recombinant (cDNA-expressed) CYP2C9 BACULOSOMES, probe Vivid red substrate 2 µM), 34.8%; on CYP1A2 (human, recombinant (cDNA-expressed) CYP1A2 BACULOSOMES, probe Vivid blue substrate 3 µM), 38.3%.
